# Results: patent US20080280837A1, “Biologically Active Compounds with Anti-Angiogenic Properties” (priority 2004, published 2008)
# Columns and labels:
# [1] = biological target: T1, SSTR-3 (Homo sapiens, UniProt P32745); experiment: Radioligand binding screen against somatostatin subtype SSTR-3; conditions: Table 8; for Ki: read-out: Ki SSTR3
# T1 construct: expressed in transfected cells
# Protocol: (§1) Receptor membrane preparations containing the desired cloned receptor (for example cloned human somatostatin receptor subtype 5, SSTR5) and radio-labeled ligand (for example 3-[^125I]iodotyrosyl^11 Somatostatin-14)) were diluted at the concentration required for testing and according to the specific parameters associated with the selected receptor-ligand combination, including receptor Bmax, ligand Kd and any other parameters necessary to optimize the experimental conditions. When tested for competition activity to the reference ligand, “compound 1” was mixed with membrane suspension and the radiolabeled reference ligand (with or without an excess of cold ligand to the receptor for determination of non-specific binding) and incubated at the temperature required by internal standard operating procedures. Following incubation, the binding reaction was stopped by the addition of ice-cold washing buffer and filtered on appropriate filters, which are then counted. Data analysis and curve-fitting was performed with XLfit (IDBS).
# (§2) 10 mM solutions of test compounds in 100% DMSO were prepared. ˜160 μl was used for each dilution (20 μl/well in triplicate).
# (§3) A 1.25 mM assay stock was prepared by making a 1:8 dilution of the 10 mM solution. (To 30 μL of the 10 mM solution was added 210 μL milli-Q H2O. A 1:5 dilution series in milli-Q H2O was then prepared.
# (§4) In primary screening experiments compounds were tested in duplicate for a particular concentration.
# [2] = biological target: T2, SSTR-1 (Homo sapiens, UniProt P30872); experiment: Radioligand binding screen against somatostatin subtype SSTR-1; conditions: Table 8; read-out: Ki SSTR1
# T2 construct: expressed in transfected cells
# Protocol: as §1, §2, §3, §4
# [3] = biological target: T3, SSTR-2 (Homo sapiens, UniProt P30874); experiment: Radioligand binding screen against somatostatin subtype SSTR-2; conditions: Table 8; for Ki: read-out: Ki SSTR2
# T3 construct: expressed in transfected cells
# Protocol: as §1, §2, §3, §4
# [4] = biological target: T4, Human SST5 somatostatin receptor (SSTR5) (Homo sapiens, UniProt P35346); experiment: Filter plate assay for SST5 receptor, displacement of [125I]SST-14; format: binding; conditions: for Ki: Table 8
# T4 construct: expressed in transfected cells; host or cells: HEK-293 EBNA
# Procedure, shortened: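 HEK-293 EBNA membranes expressing human SST5 (5.5 μg) incubated 60 min at 25 °C with 4 nM [125I]SST-14 and compound in pH 7.5 Tris/EGTA/MgCl2/sucrose buffer. Bound radioactivity collected on PEI-coated glass fiber filters and counted; triplicate 1:5 dilution series from 125 μM, non-specific binding with excess cold ligand.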
# [5] = tested on: Human Umbilical Vein Endothelial Cells (HUVEC); experiment: Endothelial cell proliferation assay (MTS); format: cell-based; conditions: 48 hrs
# Protocol: Human Umbilical Vein Endothelial Cells (HUVEC from Clonetics) were plated in 96 well plates at 1000 cell per well in EGM-2 medium (Clonetics). Cells were grown overnight at 37° C. in 5% CO2. Fresh EGM-2 medium containing compound at the desired concentration was added to the wells and the cells allowed to grow for a further 48 hrs. A MTS (Promega) colorimetric assay was performed after 48 hrs to determine cell growth according to the manufacturers instructions. Results are presented in terms of percentage growth.
# [6] = biological target: T5, SSTR-4 (Homo sapiens, UniProt P31391); experiment: Radioligand binding screen against somatostatin subtype SSTR-4 (SST4 assay); conditions: Table 8; read-out: Ki SSTR4
# T5 construct: expressed in transfected cells
# Protocol: as §1, §2, §3
# Assays were performed in triplicate at each concentration within the 1:5 dilution series: 250 μM, 50 μM, 10 μM, […], 0.4 μM, 0.08 μM, 0.016 μM, 0.0032 μM, etc. (for SST4 assay) and 125 μM, 10 μM, 2 μM, 1 μM, 0.5 μM, etc (for SST5 assay).
# as §4
# [7] = tested on: chicken embryo chorioallantoic membrane (CAM) vasculature; experiment: Early chicken embryo chorioallantoic membrane (earlyCAM) assay; format: in vivo; conditions: dose of 10 nmol
# Protocol: Vein diameter was included as a measure of vessel growth. Where there was more than one major vein branch, the diameters of both were added together to give a total vein diameter. In the control CAM there were two well developed vein branches of similar diameter. In contrast, in the treated CAM there was a single major vein branch. Total vein diameter is 239 pixels in the control CAM, and only 107 pixels in the treated CAM.
# When “compound 1” was applied to the CAM, there were dose responsive reductions in CAM growth and vasculature. The effects on CAM growth and vessel parameters were expressed as pixel measures (Table 1) and also as a percentage of the vehicle treated control group (FIG. 1). Vein lengths were reduced at all dose levels of “compound 1”, both in pixel and percentage terms, with a reduction to 67% of control at 5 nmol (p<0.05). […] When artery and vein lengths were combined to give total vessel length there was a significant reduction at the 5 nmol level (FIG. 1; p<0.05). A strong trend to reduced CAM growth with increasing doses of “compound 1” was also present.
# T2 sequence (P30872 whole entry, species assumed): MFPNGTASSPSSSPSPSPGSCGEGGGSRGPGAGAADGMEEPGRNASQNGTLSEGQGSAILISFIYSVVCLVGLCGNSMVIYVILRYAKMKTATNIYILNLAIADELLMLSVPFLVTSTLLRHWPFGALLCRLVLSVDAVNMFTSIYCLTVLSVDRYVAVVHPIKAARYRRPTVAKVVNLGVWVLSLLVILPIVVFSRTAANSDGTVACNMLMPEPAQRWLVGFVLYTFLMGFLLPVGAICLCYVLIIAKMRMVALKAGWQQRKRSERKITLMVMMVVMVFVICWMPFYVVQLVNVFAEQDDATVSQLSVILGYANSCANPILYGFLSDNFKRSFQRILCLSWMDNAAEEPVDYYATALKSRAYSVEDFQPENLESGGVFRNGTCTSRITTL
# T4 sequence (P35346 whole entry): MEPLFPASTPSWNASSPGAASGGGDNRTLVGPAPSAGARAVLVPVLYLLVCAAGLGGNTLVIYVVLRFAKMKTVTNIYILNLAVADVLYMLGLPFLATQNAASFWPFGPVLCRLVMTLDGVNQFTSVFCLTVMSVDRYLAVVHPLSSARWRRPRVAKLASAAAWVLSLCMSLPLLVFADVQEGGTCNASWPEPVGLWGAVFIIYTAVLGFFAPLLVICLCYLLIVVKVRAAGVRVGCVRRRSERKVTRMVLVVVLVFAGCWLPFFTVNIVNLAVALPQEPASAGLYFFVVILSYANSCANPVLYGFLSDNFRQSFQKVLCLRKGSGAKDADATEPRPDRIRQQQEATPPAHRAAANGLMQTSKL
# T1 sequence (P32745 whole entry): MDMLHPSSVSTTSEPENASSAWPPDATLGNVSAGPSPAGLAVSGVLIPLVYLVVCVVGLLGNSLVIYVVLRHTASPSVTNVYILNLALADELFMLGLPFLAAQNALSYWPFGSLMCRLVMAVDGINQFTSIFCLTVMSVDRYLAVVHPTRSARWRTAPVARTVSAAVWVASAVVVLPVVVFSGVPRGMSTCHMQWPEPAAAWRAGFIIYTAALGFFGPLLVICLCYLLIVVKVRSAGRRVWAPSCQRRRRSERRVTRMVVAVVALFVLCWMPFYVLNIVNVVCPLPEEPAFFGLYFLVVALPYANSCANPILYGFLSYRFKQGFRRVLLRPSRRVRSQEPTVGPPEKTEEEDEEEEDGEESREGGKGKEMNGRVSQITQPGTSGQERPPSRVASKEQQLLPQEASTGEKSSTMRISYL
# T3 sequence (P30874 whole entry): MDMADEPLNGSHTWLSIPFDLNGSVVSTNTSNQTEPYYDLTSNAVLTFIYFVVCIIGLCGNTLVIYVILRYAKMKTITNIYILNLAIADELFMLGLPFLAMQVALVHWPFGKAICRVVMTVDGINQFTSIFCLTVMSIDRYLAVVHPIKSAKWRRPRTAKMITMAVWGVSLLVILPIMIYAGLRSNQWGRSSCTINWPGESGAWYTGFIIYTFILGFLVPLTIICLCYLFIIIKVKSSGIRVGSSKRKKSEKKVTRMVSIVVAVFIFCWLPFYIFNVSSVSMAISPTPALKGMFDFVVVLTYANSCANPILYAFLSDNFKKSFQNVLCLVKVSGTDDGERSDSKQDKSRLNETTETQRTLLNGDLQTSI
# T5 sequence (P31391 whole entry): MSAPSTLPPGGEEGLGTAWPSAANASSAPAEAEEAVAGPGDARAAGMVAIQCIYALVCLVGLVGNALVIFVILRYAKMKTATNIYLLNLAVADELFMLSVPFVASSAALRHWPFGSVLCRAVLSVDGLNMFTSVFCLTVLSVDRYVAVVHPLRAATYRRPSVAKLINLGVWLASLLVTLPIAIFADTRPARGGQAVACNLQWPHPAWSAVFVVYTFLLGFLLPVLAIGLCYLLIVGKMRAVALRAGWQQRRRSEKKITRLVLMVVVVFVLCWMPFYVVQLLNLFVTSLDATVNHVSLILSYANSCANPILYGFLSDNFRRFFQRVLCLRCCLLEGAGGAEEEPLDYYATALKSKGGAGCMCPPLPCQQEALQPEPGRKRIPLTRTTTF
Compound,SSTR5 Inhib 0.5 uM % (inhibition of binding of SST-14 to SSTR5) [4],SSTR5 Inhib 10 uM % (inhibition of binding of SST-14 to SSTR5) [4],further results
COC[C@H]1OC(OCc2ccc(Cl)cc2)[C@H](NC(=O)CCCN=C(N)N)[C@H](OCc2ccc(Cl)cc2)[C@@H]1O (some centres unmarked) [Compound 2],–,–,Ki [1]: 203 nM; Ki [2]: 2280 nM; Ki [3]: 728 nM; Ki [4]: 353 nM; Percent cell growth at 125 µM [5]: -83%; Percent cell growth at 250 µM [5]: -91%; Ki [6]: 3260 nM
COC[C@H]1OC(OCc2ccc3ccccc3c2)[C@H](NC(=O)CCN)[C@H](OCc2ccccc2)[C@@H]1O (some centres unmarked) [Compound 6],–,–,"IC50 ([1]; shown where Ki could not be determined (NoModel), read-out: IC50 SSTR3 (in parentheses)): 206 nM; Ki [2]: > 10000 nM; IC50 ([3]; shown where Ki could not be determined (NoModel), read-out: IC50 SSTR2 (in parentheses)): 29200 nM; Ki [4]: 151 nM; Percent cell growth at 125 µM [5]: 24%; Percent cell growth at 250 µM [5]: -78%; Ki [6]: > 10000 nM"
octeotride [reference compound],–,–,Effect on the CAM vasculature [7]: did not appear to have any significant effect
COC[C@H]1OC(OCc2ccc3ccccc3c2)[C@H](NC(=O)CCN)[C@H](OCc2ccc3ccccc3c2)[C@@H]1O (some centres unmarked) [Compound 16],–,–,Ki [1]: 441 nM; Ki [2]: 2370 nM; Ki [3]: 860 nM; Ki [4]: 85 nM; Ki [6]: 4380 nM
COC[C@H]1OC(OCc2ccc(Cl)cc2)[C@H](NC(=O)CCCN)[C@H](OCc2ccc3ccccc3c2)[C@@H]1O (some centres unmarked) [Compound 24],67%,96%,–
COC[C@H]1OC(OCc2ccc3ccccc3c2)[C@H](NC(=O)CCCN)[C@@H](OCc2cccc(O)c2)[C@@H]1O (some centres unmarked) [Compound 146],40%,77%,–
CSC1O[C@H](COCc2ccccc2)[C@@H](O)[C@@H](OCc2ccc(-c3ccccc3)cc2)[C@H]1NC(=O)CCCNC(=N)N (some centres unmarked) [Compound 155],46%,76%,–
COC[C@H]1OC(OCc2ccc(Cl)cc2)[C@H](NC(=O)CCNC(=N)N)[C@H](OCc2ccc(Cl)cc2)[C@@H]1O (some centres unmarked) [Compound 71],49%,89%,–
COC[C@H]1OC(OCc2ccc3ccccc3c2)[C@H](NC(=O)CCN)[C@H](OCc2ccc(-c3ccccc3)cc2)[C@@H]1O (some centres unmarked) [Compound 26],77%,96%,–
CSC1O[C@H](COCc2ccccc2)[C@@H](O)[C@@H](OCc2ccc(-c3ccccc3)cc2)[C@H]1NC(=O)CCCN (some centres unmarked) [Compound 94],45%,86%,–
CO[C@H]1[C@H](O)[C@@H](COCc2ccc(-c3ccccc3)cc2)OC(OCc2ccc(-c3ccccc3)cc2)[C@@H]1NC(=O)CNC(=N)N (some centres unmarked) [Compound 70],18%,89%,–
COC[C@H]1OC(OCc2ccc(-c3ccccc3)cc2)[C@H](NC(=O)CCCN)[C@@H](OCc2ccc(Cl)cc2)[C@@H]1O (some centres unmarked) [Compound 63],50%,90%,–
COC[C@H]1OC(OCc2ccccc2)[C@H](NC(=O)CCCN)[C@@H](OCc2ccc(-c3ccccc3)cc2)[C@@H]1O (some centres unmarked) [Compound 95],44%,85%,–
COC[C@H]1OC(OCc2ccc(Cl)cc2)[C@H](NC(=O)CCNC(=N)N)[C@H](OCc2ccc(-c3ccccc3)cc2)[C@@H]1O (some centres unmarked) [Compound 99],43%,84%,–
CSC1O[C@H](COCc2ccccc2)[C@@H](O)[C@@H](OCc2ccc(-c3ccccc3)cc2)[C@H]1NC(=O)CNC(=N)N (some centres unmarked) [Compound 149],35%,76%,–
COC[C@H]1OC(OCc2ccccc2)[C@H](NC(=O)CCCN)[C@H](OCc2ccc(Cl)cc2)[C@@H]1O (some centres unmarked) [Compound 59],66%,90%,–
NCCC(=O)N[C@H]1CO[C@H](COCc2ccc(-c3ccccc3)cc2)[C@@H](O)[C@H]1OCc1ccc(Cl)cc1 [Compound 124],50%,80%,–
COC[C@H]1OC(OCc2ccc3ccccc3c2)[C@H](NC(=O)CCCN)[C@@H](OCc2cccc(O)c2)[C@@H]1O (some centres unmarked) [Compound 82],48%,87%,–
COC[C@H]1OC(OCc2ccc3ccccc3c2)[C@H](NC(=O)CCNC(=N)N)[C@H](OCc2ccc(Cl)cc2)[C@@H]1O (some centres unmarked) [Compound 35],60%,95%,–
COC[C@H]1OC(OCc2ccc3ccccc3c2)[C@H](NC(=O)CCNC(=N)N)[C@@H](OCc2ccccc2)[C@@H]1O (some centres unmarked) [Compound 170],29%,72%,–
COC[C@H]1OC(OCc2ccc3ccccc3c2)[C@H](NC(=O)CCNC(=N)N)[C@H](OCc2ccc3ccccc3c2)[C@@H]1O (some centres unmarked) [Compound 57],64%,91%,–
COC[C@H]1OC(OCc2ccc(-c3ccccc3)cc2)[C@H](NC(=O)CCCNC(=N)N)[C@@H](OCc2ccc(Cl)cc2)[C@@H]1O (some centres unmarked) [Compound 93],47%,86%,–
CSC1O[C@H](COCc2ccccc2)[C@@H](O)[C@@H](OCc2ccc3ccccc3c2)[C@H]1NC(=O)CCNC(=N)N (some centres unmarked) [Compound 128],28%,80%,–
COC[C@H]1OC(OCc2ccc(Cl)cc2)[C@H](NC(=O)CCCN)[C@@H](OCc2ccc(Cl)cc2)[C@@H]1O (some centres unmarked) [Compound 33],68%,95%,–
COC[C@H]1OC(OCc2ccccc2)[C@H](NC(=O)CCN)[C@H](OCc2ccc(-c3ccccc3)cc2)[C@@H]1O (some centres unmarked) [Compound 54],60%,91%,–
